Reference: patent publication US20230131899A1, “INHIBITORS OF MICROBIALLY INDUCED AMYLOID” (Axial Therapeutics, Inc., priority 2020, published 2023)
Like-named read-outs stand apart in the source and are kept apart here.

Test system: CsgA gene expression (csgBAC promoter-GFP reporter) in E. coli UTI89
Experiment: In vitro live cell fluorescent reporter assay of CsgA transcription (Reporter Assay)
Type: cell-based
Conditions: Escherichia coli
In short: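 Chromosomal single-copy csgBAC promoter–GFP reporter in E. coli UTI89, started at OD600 0.003 in YESCA broth with compound (0.14–100 μM, 1% DMSO), 20 h at 27 °C. GFP (ex 485/em 525 nm) background-subtracted and normalized to vehicle; IC50 and X[50] from curve fits. OD600 tracked growth effects.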

[1] = read-out: Reporter Assay Abs IC50 (activity range), median Abs IC50 in the CsgA reporter assay, class symbol
[2] = read-out: Reporter Assay Abs IC50 (μM), median Abs IC50 in the CsgA reporter assay, N/A = maximum expression reduction is <50% of control
[3] = read-out: Reporter Assay Abs IC50, activity range, class symbol

`O=C(O)c1c(CCc2ccccc2)sc2c(-c3cccc(C(F)(F)F)c3)c(Cc3cccc4ccccc34)cc(=O)n12` [Compound 062, 7-(naphthalen-1-ylmethyl)-5-oxo-2-phenethyl-8-(3-(trifluoromethyl)phenyl)-5H-thiazolo[3,2-a]pyridine-3-carboxylic acid] was tested, and the IC50 [1] was < 1.3 µM and the IC50 [2] was 0.9 µM.
With `CCCCN1CC(C(=O)O)n2c1c(-c1cccc(C(F)(F)F)c1)c(Cc1cccc3ccccc13)c(Cl)c2=O` (stereo not shown) [Compound 163, 1-butyl-6-chloro-7-(naphthalen-1-ylmethyl)-5-oxo-8-(3-(trifluoromethyl)phenyl)-1,2,3,5-tetrahydroimidazo[1,2-a]pyridine-3-carboxylic acid] the IC50 [2] was 1.2 µM and the IC50 [3] was < 1.3 µM.
In the case of `CC(C)(C)c1ccc(Cc2c(-c3cccc(C(F)(F)F)c3)c3n(c(=O)c2Cl)C(C(=O)O)CN3Cc2ccccc2)cc1` (stereo not shown) [Compound 216, 1-benzyl-7-(4-(tert-butyl)benzyl)-6-chloro-5-oxo-8-(3-(trifluoromethyl)phenyl)-1,2,3,5-tetrahydroimidazo[1,2-a]pyridine-3-carboxylic acid], the IC50 [2] is reported as 0.7 µM and the IC50 [3] is reported as < 1.3 µM.
For `O=C(O)C1CN(CC2CCCC2)c2c(-c3cccc(C(F)(F)F)c3)c(Cc3cccc4ccccc34)c(Cl)c(=O)n21` (stereo not shown) [Compound 167, 6-chloro-1-(cyclopentylmethyl)-7-(naphthalen-1-ylmethyl)-5-oxo-8-(3-(trifluoromethyl)phenyl)-1,2,3,5-tetrahydroimidazo[1,2-a]pyridine-3-carboxylic acid], the IC50 [2] was 0.6 µM and the IC50 [3] was < 1.3 µM.
For `O=C(O)C1CN(CCCO)c2c(-c3cccc(C(F)(F)F)c3)c(Cc3cccc4ccccc34)c(Cl)c(=O)n21` (stereo not shown) [Compound 197, 6-chloro-1-(3-hydroxypropyl)-7-(naphthalen-1-ylmethyl)-5-oxo-8-(3-(trifluoromethyl)phenyl)-1,2,3,5-tetrahydroimidazo[1,2-a]pyridine-3-carboxylic acid], the IC50 [2] was 19.3 µM and the IC50 [3] was > 10 µM.
In the case of `CNC(=O)C1CN(C)S(=O)(=O)c2c(-c3cccc(C(F)(F)F)c3)c(Cc3cccc4ccccc34)cc(=O)n21` (stereo not shown) [Compound 031, N,2-dimethyl-8-(naphthalen-1-ylmethyl)-6-oxo-9-(3-(trifluoromethyl)phenyl)-3,4-dihydro-2H,6H-pyrido[1,2-e][1,2,5]thiadiazine-4-carboxamide 1,1-dioxide], the IC50 [1] is reported as 1.3 to 4.5 µM and the IC50 [2] is reported as 4.2 µM.
Work on `Cn1c(=O)c2c(ncn2CCCCCN2CC(C(=O)O)n3c(c(-c4cccc(C(F)(F)F)c4)c(Cc4cccc5ccccc45)cc3=O)S2(=O)=O)n(C)c1=O` (stereo not shown) [Compound 034, 2-(5-(1,3-dimethyl-2,6-dioxo-1,2,3,6-tetrahydro-7H-purin-7-yl)pentyl)-8-(naphthalen-1-ylmethyl)-6-oxo-9-(3-(trifluoromethyl)phenyl)-3,4-dihydro-2H,6H-pyrido[1,2-e][1,2,5]thiadiazine-4-carboxylic acid 1,1-dioxide] yielded an IC50 [1] of 1.3 to 4.5 µM and an IC50 [2] of 2.8 µM.
In the case of `O=C(O)C1CSc2c(-c3cccc(C(F)(F)F)c3)c(C(F)(F)c3cccc4ccccc34)cc(=O)n21` (stereo not shown) [Compound 073, 7-(difluoro(naphthalen-1-yl)methyl)-5-oxo-8-(3-(trifluoromethyl)phenyl)-2,3-dihydro-5H-thiazolo[3,2-a]pyridine-3-carboxylic acid], the IC50 [1] is reported as 4.6 to 10 µM and the IC50 [2] is reported as 6 µM.
With `O=C(O)C1CN(Cc2ccccc2)c2c(-c3cccc(C(F)(F)F)c3)c(Cc3cccc4ccccc34)c(Br)c(=O)n21` (stereo not shown) [Compound 003, 1-benzyl-6-bromo-7-(naphthalen-1-ylmethyl)-5-oxo-8-(3-(trifluoromethyl)phenyl)-1,2,3,5-tetrahydroimidazo[1,2-a]pyridine-3-carboxylic acid] the IC50 [2] was 0.8 µM and the IC50 [3] was < 1.3 µM.
`O=C(O)C1CN(Cc2ccc(-c3ccccc3)cc2)c2c(-c3cccc(C(F)(F)F)c3)c(Cc3cccc4ccccc34)c(Cl)c(=O)n21` (stereo not shown) [Compound 202, 1-([1,1′-biphenyl]-4-ylmethyl)-6-chloro-7-(naphthalen-1-ylmethyl)-5-oxo-8-(3-(trifluoromethyl)phenyl)-1,2,3,5-tetrahydroimidazo[1,2-a]pyridine-3-carboxylic acid] was tested, and the IC50 [2] was 0.8 µM and the IC50 [3] was < 1.3 µM.
In the case of `CCCN1CC(C(=O)O)n2c(c(-c3cccc(C(F)(F)F)c3)c(Cc3cccc4ccccc34)c(C(N)=O)c2=O)S1(=O)=O` (stereo not shown) [Compound 172, 7-carbamoyl-8-(naphthalen-1-ylmethyl)-6-oxo-2-propyl-9-(3-(trifluoromethyl)phenyl)-3,4-dihydro-2H,6H-pyrido[1,2-e][1,2,5]thiadiazine-4-carboxylic acid 1,1-dioxide], the IC50 [2] is reported as 4.2 µM and the IC50 [3] is reported as 1.3 to 4.5 µM.
In the case of `O=C(O)C1CN(CCCO)S(=O)(=O)c2c(-c3cccc(C(F)(F)F)c3)c(Cc3cccc4ccccc34)cc(=O)n21` (stereo not shown) [Compound 056, 2-(3-hydroxypropyl)-8-(naphthalen-1-ylmethyl)-6-oxo-9-(3-(trifluoromethyl)phenyl)-3,4-dihydro-2H,6H-pyrido[1,2-e][1,2,5]thiadiazine-4-carboxylic acid 1,1-dioxide], the IC50 [1] is reported as > 10 µM and the IC50 [2] is reported as 19.8 µM.
`O=C(O)C1COc2c(-c3cccc(C(F)(F)F)c3)c(Cc3cccc4ccccc34)cc(=O)n21` (stereo not shown) [Compound 064, 7-(naphthalen-1-ylmethyl)-5-oxo-8-(3-(trifluoromethyl)phenyl)-2,3-dihydro-5H-oxazolo[3,2-a]pyridine-3-carboxylic acid] was tested, and the IC50 [1] was > 10 µM and the IC50 [2] was 45.3 µM.
`O=C(O)C1CN(Cc2cccc3ccccc23)c2c(-c3cccc(C(F)(F)F)c3)c(Cc3cccc4ccccc34)c(Cl)c(=O)n21` (stereo not shown) [Compound 200, 6-chloro-1,7-bis(naphthalen-1-ylmethyl)-5-oxo-8-(3-(trifluoromethyl)phenyl)-1,2,3,5-tetrahydroimidazo[1,2-a]pyridine-3-carboxylic acid] was tested, and the IC50 [2] was 1.3 µM and the IC50 [3] was 1.3 to 4.5 µM.
For `CNC(=O)CCCCN1CC(C(=O)O)n2c(c(-c3cccc(C(F)(F)F)c3)c(Cc3cccc4ccccc34)cc2=O)S1(=O)=O` (stereo not shown) [Compound 038, 2-(5-(methylamino)-5-oxopentyl)-8-(naphthalen-1-ylmethyl)-6-oxo-9-(3-(trifluoromethyl)phenyl)-3,4-dihydro-2H,6H-pyrido[1,2-e][1,2,5]thiadiazine-4-carboxylic acid 1,1-dioxide], the IC50 [1] was > 10 µM and the IC50 [2] was 24 µM.
Compound `O=C(O)C1CN(Cc2ccc(CO)cc2)c2c(-c3cccc(C(F)(F)F)c3)c(Cc3cccc4ccccc34)c(Cl)c(=O)n21` (stereo not shown) [Compound 170, 6-chloro-1-(4-(hydroxymethyl)benzyl)-7-(naphthalen-1-ylmethyl)-5-oxo-8-(3-(trifluoromethyl)phenyl)-1,2,3,5-tetrahydroimidazo[1,2-a]pyridine-3-carboxylic acid] has an IC50 [2] of 2.2 µM and an IC50 [3] of 1.3 to 4.5 µM.
With `CN1CC(C(=O)O)n2c(c(-c3cccc(C(F)(F)F)c3)c(Cc3cccc4ccccc34)c(C(=O)NC(C)(C)C)c2=O)S1(=O)=O` (stereo not shown) [Compound 158, 7-(tert-butylcarbamoyl)-2-methyl-8-(naphthalen-1-ylmethyl)-6-oxo-9-(3-(trifluoromethyl)phenyl)-3,4-dihydro-2H,6H-pyrido[1,2-e][1,2,5]thiadiazine-4-carboxylic acid 1,1-dioxide] the IC50 [2] was 1.7 µM and the IC50 [3] was 1.3 to 4.5 µM.
